Publication PMC9917406, “Synthesis, Biological and In Silico Studies of Griseofulvin and Usnic Acid Sulfonamide Derivatives as Fungal, Bacterial and Human Carbonic Anhydrase Inhibitors” (International Journal of Molecular Sciences, 2023)
Read-outs that look alike come from different tables or passages of the source.

Key:
Type in all cases: biochemical
BpsCAγ = BpsCAγ (Burkholderia pseudomallei, UniProt Q63SQ4); details: read-out: KI BpsCAγ
CpsCAγ = CpsCAγ (Colwellia psychrerythraea, UniProt Q48AV3); assay: biochemical
Chain of CpsCAγ (Q48AV3 entry or part of it): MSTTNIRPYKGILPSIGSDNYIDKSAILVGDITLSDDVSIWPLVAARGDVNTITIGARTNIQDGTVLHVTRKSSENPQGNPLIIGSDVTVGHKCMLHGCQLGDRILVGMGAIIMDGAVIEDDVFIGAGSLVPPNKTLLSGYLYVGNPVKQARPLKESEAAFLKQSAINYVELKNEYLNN

hCA IX = hCA IX (Homo sapiens, UniProt Q16790); assay: stopped-flow CO2 hydrase assay, hCA IX; details: mean from 3 different assays, errors ±5–10%; read-out: KI hCAIX
MgCA = target: T1, MgCA (Malassezia globosa, UniProt A8Q1N3); assay: stopped-flow CO2 hydrase assay, MgCA; details: mean from 3 different assays, errors ±5–10%
T1 sequence (A8Q1N3 1-241): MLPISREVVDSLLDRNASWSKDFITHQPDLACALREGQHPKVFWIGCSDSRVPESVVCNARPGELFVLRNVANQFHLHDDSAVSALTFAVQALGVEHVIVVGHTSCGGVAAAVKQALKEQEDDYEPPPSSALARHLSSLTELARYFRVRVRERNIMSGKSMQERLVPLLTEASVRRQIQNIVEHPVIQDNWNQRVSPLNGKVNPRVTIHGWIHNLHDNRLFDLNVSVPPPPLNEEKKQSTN

PgiCAγ = target: T2, PgiCAγ (Porphyromonas gingivalis, UniProt Q7MV79); assay: stopped-flow CO2 hydrase assay, PgiCAγ; details: for Ki: mean from 3 different assays, errors ±5–10%
T2 sequence (Q7MV79 1-192): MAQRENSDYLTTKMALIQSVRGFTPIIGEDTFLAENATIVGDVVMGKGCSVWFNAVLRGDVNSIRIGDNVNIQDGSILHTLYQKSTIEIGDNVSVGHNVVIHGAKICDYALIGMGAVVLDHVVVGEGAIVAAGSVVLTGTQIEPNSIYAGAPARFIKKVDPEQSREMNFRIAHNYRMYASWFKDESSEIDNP

hCA I = hCA I (Homo sapiens, UniProt P00915); assay: stopped-flow CO2 hydrase assay, hCA I; details: mean from 3 different assays, errors ±5–10%
Chain of hCA I (P00915 whole entry): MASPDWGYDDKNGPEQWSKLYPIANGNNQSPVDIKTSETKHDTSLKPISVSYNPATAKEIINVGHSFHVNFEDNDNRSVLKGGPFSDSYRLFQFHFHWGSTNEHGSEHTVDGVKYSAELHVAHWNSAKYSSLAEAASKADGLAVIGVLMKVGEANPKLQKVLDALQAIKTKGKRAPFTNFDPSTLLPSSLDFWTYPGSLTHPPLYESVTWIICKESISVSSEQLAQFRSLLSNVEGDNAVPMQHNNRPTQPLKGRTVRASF

PgiCAβ = target: T3, PgiCAβ (Porphyromonas gingivalis, UniProt B2RL07); assay: stopped-flow CO2 hydrase assay, PgiCAβ; details: mean from 3 different assays, errors ±5–10%
T3 sequence (B2RL07 19-242): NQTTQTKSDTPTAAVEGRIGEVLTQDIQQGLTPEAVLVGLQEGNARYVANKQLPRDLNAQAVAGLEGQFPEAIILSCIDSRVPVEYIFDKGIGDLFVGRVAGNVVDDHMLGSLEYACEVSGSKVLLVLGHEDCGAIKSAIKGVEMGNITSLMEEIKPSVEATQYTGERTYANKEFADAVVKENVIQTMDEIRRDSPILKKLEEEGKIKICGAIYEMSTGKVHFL

hCA II = hCA II (Homo sapiens, UniProt P00918); assay: stopped-flow CO2 hydrase assay, hCA II; details: for Ki: mean from 3 different assays, errors ±5–10%; for selectivity index (SI) towards hCA I: hCA II inhibition relative to hCA I; for selectivity index (SI) towards hCA IX: hCA II inhibition relative to hCA IX
SmuCA = target: T4, SmuCA (Streptococcus mutans, UniProt Q8DVY1); assay: stopped-flow CO2 hydrase assay, SmuCA; details: for Ki: mean from 3 different assays, errors ±5–10%
T4 sequence (Q8DVY1 1-166): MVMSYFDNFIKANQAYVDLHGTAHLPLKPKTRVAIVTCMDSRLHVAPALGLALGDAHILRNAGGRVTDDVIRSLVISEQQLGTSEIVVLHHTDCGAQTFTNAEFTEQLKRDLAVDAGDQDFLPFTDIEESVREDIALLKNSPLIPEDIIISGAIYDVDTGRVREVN

[1] = mean from 3 different assays, errors ±5–10%, read-out: KI CpsCAγ

Chain of BpsCAγ (Q63SQ4 1-174): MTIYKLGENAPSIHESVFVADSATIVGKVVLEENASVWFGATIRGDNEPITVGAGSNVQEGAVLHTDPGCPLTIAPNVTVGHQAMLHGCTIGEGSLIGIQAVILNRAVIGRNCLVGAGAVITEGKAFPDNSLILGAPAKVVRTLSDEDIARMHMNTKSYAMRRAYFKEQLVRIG

Structure (SMILES) | Ki (BpsCAγ) | Ki (CpsCAγ) | Ki (hCA IX) | Ki (MgCA) | SI towards PgiCAβ (PgiCAγ; PgiCAγ inhibition relative to PgiCAβ) | fold more active than acetazolamide (PgiCAγ; against PgiCAγ) | Ki (PgiCAγ) | Ki (hCA I) | Ki (PgiCAβ) | Ki (hCA II) | Ki (SmuCA) | SI towards all other bacterial strains (SmuCA; S. mutans CA inhibition relative to other bacterial CAs) | selectivity index (SI) towards hCA I (hCA II) | selectivity index (SI) towards hCA IX (hCA II) | Ki (CpsCAγ; [1]) | SI towards BpsCAγ (CpsCAγ; CpsCAγ inhibition relative to BpsCAγ) | SI towards PgiCAγ (CpsCAγ; CpsCAγ inhibition relative to PgiCAγ) | SI towards S. mutans (CpsCAγ; CpsCAγ inhibition relative to S. mutans CA)
COc1cc(OC)c2c(c1Cl)OC1(C(=O)C=C(NCCS(N)(=O)=O)CC1C)C2=O [Compound 1a, 2-(((2S,6′R)-7-chloro-4,6-dimethoxy-6′-methyl-2′,3-dioxo-3H-spiro[benzofuran-2,1′-cyclohexan]-3′-en-4′-yl)amino)ethane-1-sulfonamide] | 448 nM | 3150 nM | 31.2 nM | 544 nM | 8.5 | 3.5 fold | 92.1 nM | 562 nM | 779 nM | 653 nM | 1630 nM | – | – | – | – | – | – | –
COc1cc(OC)c2c(c1Cl)OC1(C(=O)C=C(Nc3ccc(S(N)(=O)=O)cc3)CC1C)C2=O [Compound 1b, 4-(((2S,6′R)-7-chloro-4,6-dimethoxy-6′-methyl-2′,3-dioxo-3H-spiro[benzofuran-2,1′-cyclohexan]-3′-en-4′-yl)amino)benzenesulfonamide] | 945 nM | 939 nM | 203 nM | 476 nM | – | – | 820 nM | 234 nM | 819 nM | 64.4 nM | 294 nM | 3 | – | – | – | – | – | –
COc1cc(OC)c2c(c1Cl)OC1(C(=O)C=C(NCc3ccc(S(N)(=O)=O)cc3)CC1C)C2=O [Compound 1c, 4-((((2S,6′R)-7-chloro-4,6-dimethoxy-6′-methyl-2′,3-dioxo-3H-spiro[benzofuran-2,1′-cyclohexan]-3′-en-4′-yl)amino)methyl)benzenesulfonamide] | 833 nM | 900 nM | 102 nM | 568 nM | – | – | 661 nM | 74.6 nM | 896 nM | 29.1 nM | 4000 nM | – | – | – | – | – | – | –
COc1cc(OC)c2c(c1Cl)OC1(C(=O)C=C(Nc3ccc(S(N)(=O)=O)cc3O)CC1C)C2=O [Compound 1d, 4-(((2S,6′R)-7-chloro-4,6-dimethoxy-6′-methyl-2′,3-dioxo-3H-spiro[benzofuran-2,1′-cyclohexan]-3′-en-4′-yl)amino)-3-hydroxybenzenesulfonamide] | 878 nM | 591 nM | 29.4 nM | 1590 nM | – | – | 584 nM | 28.8 nM | 1280 nM | 4.9 nM | 897 nM | – | 5.88 | 6.00 | – | – | – | –
COc1cc(OC)c2c(c1Cl)O[C@@]1(C(=O)/C(=C\NCc3ccc(S(N)(=O)=O)cc3)C(=O)C[C@H]1C)C2=O [Compound 1e] | 1060 nM | 220 nM | 29.2 nM | 1830 nM | – | – | 1270 nM | 320 nM | 940 nM | 165 nM | 1640 nM | – | – | – | – | – | – | –
COc1cc(OC)c2c(c1Cl)O[C@@]1(C(=O)C(=CNCCc3ccc(S(N)(=O)=O)cc3)C(=O)C[C@H]1C)C2=O [Compound 1f, 4-(2-((((2R,2′R)-7-chloro-4,6-dimethoxy-2′-methyl-3,4′,6′-trioxo-3H-spiro[benzofuran-2,1′-cyclohexan]-5′-ylidene)methyl)amino)ethyl)benzenesulfonamide] | 2280 nM | 726 nM | 30.6 nM | 4000 nM | – | – | 602 nM | 348 nM | 8360 nM | 70.8 nM | 2470 nM | – | – | – | – | – | – | –
COc1cc(C(CC(=O)NCCS(N)(=O)=O)C2C(=O)C[C@@H](C)[C@]3(Oc4c(Cl)c(OC)cc(OC)c4C3=O)C2=O)ccc1O (stereo partly drawn) [Compound 1g] | 2330 nM | – | 710 nM | 3150 nM | – | – | 2220 nM | 2990 nM | 5590 nM | 4050 nM | 1220 nM | – | – | – | 301 nM | – | – | –
COc1cc(OC)c2c(c1Cl)O[C@]1(C2=O)C(=O)C(C(CC(=O)NCc2ccc(S(N)(=O)=O)cc2)c2ccc(SC)cc2)C(=O)C[C@H]1C (stereo partly drawn) [Compound 1h] | 1400 nM | – | 73.7 nM | 4350 nM | – | – | 853 nM | 41.1 nM | 5750 nM | 7.5 nM | 580 nM | – | – | – | 625 nM | – | – | –
COc1cc(OC)c2c(c1Cl)O[C@]1(C2=O)C(=O)C(C(CC(=O)NCCc2ccc(S(N)(=O)=O)cc2)c2ccc(SC)cc2)C(=O)C[C@H]1C (stereo partly drawn) [Compound 1i, 3-((2S,2′R)-7-chloro-4,6-dimethoxy-2′-methyl-3,4′,6′-trioxo-3H-spiro[benzofuran-2,1′-cyclohexan]-5′-yl)-3-(4-(methylthio)phenyl)-N-(4-sulfamoylphenethyl)propenamide] | 1040 nM | – | 23.3 nM | 1910 nM | – | – | 854 nM | 15.3 nM | 506 nM | 8.1 nM | 889 nM | – | – | – | 804 nM | – | – | –
COc1cc(OC)c2c(c1Cl)O[C@]1(C2=O)C(=O)C(C(CC(=O)NCC(=O)Nc2ccc(S(N)(=O)=O)cc2)c2ccc(SC)cc2)C(=O)C[C@H]1C (stereo partly drawn) [Compound 1j, 3-((2S,2′R)-7-chloro-4,6-dimethoxy-2′-methyl-3,4′,6′-trioxo-3H-spiro[benzofuran-2,1′-cyclohexan]-5′-yl)-3-(4-(methylthio)phenyl)-N-(2-oxo-2-((4-sulfamoylphenyl)amino)ethyl)propenamide] | 710 nM | – | 22.5 nM | 2050 nM | – | – | 2320 nM | 27.7 nM | 3000 nM | 5.7 nM | 1230 nM | – | – | – | 177 nM | 4 | 13 | 6.9
CC(=O)c1c(O)c(C)c(O)c2c1OC1=CC(=O)C(=C(C)Nc3ccc(S(N)(=O)=O)cc3O)C(=O)[C@@]12C [Compound 4a, (R)-4-((1-(6-acetyl-7,9-dihydroxy-8,9b-dimethyl-1,3-dioxo-3,9b-dihydrodibenzo[b,d]furan-2(1H)-ylidene)ethyl)amino)-3-hydroxybenzenesulfonamide] | 473 nM | 723 nM | 66.9 nM | 3430 nM | – | – | 897 nM | 370 nM | 888 nM | 8.4 nM | 841 nM | – | 43.9 | 7.96 | – | – | – | –
CC(=O)c1c(O)c(C)c(O)c2c1OC1=CC(=O)C(=C(C)Nc3cc(S(N)(=O)=O)ccc3O)C(=O)[C@@]12C [Compound 4b, (R)-3-((1-(6-acetyl-7,9-dihydroxy-8,9b-dimethyl-1,3-dioxo-3,9b-dihydrodibenzo[b,d]furan-2(1H)-ylidene)ethyl)amino)-4-hydroxybenzenesulfonamide] | 1000 nM | 809 nM | 305 nM | 2500 nM | – | – | 1840 nM | – | 766 nM | 755 nM | 1700 nM | – | – | – | – | – | – | –
